Assay results from patent publication US20230002368A1, “USE OF COMPOUNDS FOR THE PREVENTION AND/OR TREATMENT OF ANKYLOSING SPONDYLITIS, AND CORRESPONDING COMPOSITIONS” (NUVAMID SA, priority 2019, published 2023).

Legend:
[1] = Weight and tolerance of treated TgA86 mice; format: in vivo; conditions: male TgA86 mice, NMN 185 mg/kg intraperitoneally, 10 weeks
Method: (§1) The efficacy of the use of NMN (compound IE) according to the invention was evaluated in 3-week-old TgA86 mice as a model for ankylosing spondylitis. TgA86 mice develop peripheral and axial AS with an incidence of 100%. In these mice, the peripheral form is manifested by joint welling and paw deformation, whilst the axial form is clinically characterised by curved tails and pelvic ankylosis.
(§2) In brief, male TgA86 mice were divided into two groups of 10 mice each: (i) a control group, in which the mice were treated with vehicle, i.e. a 0.9% NaCl solution (10 mL/kg), marked ‘Vehicle’; […] a group of mice treated with NMN (185 mg/kg), marked ‘NMN’. The solutions were injected intraperitoneally.
The mice were treated for 10 weeks under the conditions set forth supra. The joint score, tail score, and weight of the mice were measured every week. The joint score was determined in accordance with table 3 infra: […]

[2] = system: TgA86 mice as a model for ankylosing spondylitis; experiment: TgA86 mouse model of ankylosing spondylitis: joint score and tail score; format: in vivo; conditions: male TgA86 mice, NMN 185 mg/kg intraperitoneally
Method: as §1, §2
The mice were treated for 10 weeks under the conditions set forth supra. The joint score, tail score, and weight of the mice were measured every week. The joint score was determined in accordance with table 3 infra:
The tail score is an indicator that allows for an evaluation of the axial form of AS and pelvic ankylosis (see https://www.biomedcode.com/wp-content/uploads/2019/07/TgA86-white-paper.pdf). The tail score was determined in accordance with table 4 infra: […]

## NC(=O)c1ccc[n+]([C@@H]2O[C@H](COP(=O)([O-])O)[C@@H](O)[C@H]2O)c1 [NMN, nicotinamide mononucleotide]
[1]
  tolerance / toxicity in the animals: well tolerated by the mice and does not cause any distress or toxicity in the animals
[1]; measured every week, vs vehicle (FIG. 1)
  development of the average weight of mice: follows a similar course of development to that of the control group
[2]; 10 weeks, vs vehicle control group (FIG. 2)
  average joint score (peripheral AS): reduction in the joint score of the mice compared to the control group
[2]; 10 weeks, vs vehicle control group (FIG. 3)
  average tail score (axial AS, pelvic ankylosis): reduces the tail score in the mice treated compared to the control group
[2]; T-test vs vehicle (FIG. 2)
  significance of the joint score reduction over time: particularly significant starting in the 5th week of treatment
[2]; T-test vs vehicle (FIG. 3)
  significance of the tail score reduction over time: significant starting in the second week of treatment
